Consider ten molecules from US5962456A, “N-acylpiperazine derivative, anti-ulcer drug, and antibacterial drug” (Shiseido Co., Ltd., priority 1996, dated 1999).

For data set [1], the system named is gastric corpus mucosa cells. Nature of the data set: MTT: Cell Damaging and Protecting Effect Test. It counts as cell-based, rabbit (male Japanese White). The conditions noted are these: final concentration 10^-4 M, 4 hours; smaller value is better; 100 µM. An excerpt: (§1) MTT: Cell Damaging and Protecting Effect Test
(§2) It is confirmed that there is no toxicity in cell level. Those having a toxicity in cell level are inappropriate as an anti-ulcer drug.
(§3) A male Japanese White rabbit (2.5 to 3 kg) was anesthetized to death by Nembutal™ and, immediately thereafter, its stomach was removed. The greater curvature of the stomach was incised so as to remove the stomach contents therefrom. After the mucosal surface was washed with HBSS (Hanks' Balanced Salt Solution), the stomach in ice-cooled HBSS was transferred to a laboratory. Then, after the pyloric antrum was removed, the gastric corpus mucosa was separated by a spatula and then minced into 2 to 3 mm^3 pieces in BME (Basal Medium Eagle). Thereafter, these pieces were shaken at 120 to 130 cycles/minute for 15 minutes at 37° C. in BME 60 ml containing 280 U/ml of dispase and 30 to 50 U/ml of collagenase. Here, the concentration of collagenase was appropriately changed for each lot in view of the state of cells. The pieces were washed twice with EBSS (Earle's Balanced Salt Solution) containing 1 mM of EDTA and then shaken in MEM (Minimum Essential Medium) containing 1 mM of EDTA at 37° C. for 5 minutes. Subsequently, they were shaken in the dispase and collagenase having the same concentrations as those mentioned above for 15 minutes so as to remove the supernatant and then further shaken at 37° C. for 50 to 60 minutes at 120 to 130 cycles/minute. Then, after being washed twice with HBSS, Ham F12 containing 2% of Ultrocer G™ was used to attain the concentration of 1×10^6 cells/ml. Thus formed suspension was dispensed in each well of a 96-well plate by 200 μl. The plate was incubated in the atmosphere composed of 5% CO2 and 95% air at 37° C. for three days so as to attain a confluent state and then subjected to MTT assay.
(§4) The sample compound was dissolved in DMSO so as to attain a concentration of 10^-2 M and then diluted with HBSS containing 2% of Ultrocer G™ so as to attain a final concentration of 10^-4 M. To each group, which 8 wells were used for, 10 μl of MTT reagent was added immediately after 100 μl of the medium in each well was exchanged for same volume of the resulting solution of the sample compound. After being incubated in an atmosphere composed of 5% CO2 and 95% air at 37° C. for 4 hours, thus formed solution was centrifuged and then its supernatant was discarded. Subsequently, 100 μl of 100% ethanol was added to the residue so as to dissolve MTT formazan. Then, the absorbance (OD: 570 to 630) was measured by a microplate reader. This method utilizes a phenomenon in which MTT is changed to MTT formazan only by mitochondria of living cells so as to change color.
(§5) The cell damaging or cell protecting effect of the sample compound at the final concentration of 10^-4 M was expressed as cell damaging rate (%) as follows:
(§6) cell damaging rate (%)=(1-(absorbance in sample group/absorbance in control group))×100
(§7) Accordingly, the smaller rate value is better in the cell damage.

In data set [2] the test system is isolated gastric fundic gland. The data set is described as follows: CAP: Acid Secretion Inhibition Test In Vitro ([14C]-aminopyrine uptake). In kind it is cell-based, rabbit (male Japanese White). The conditions noted are these: final concentration 10^-5 M, histamine 10^-5 M, rabbit gastric fundic glands; for inhibition at 10 µM: Oryctolagus cuniculus, read-out: CAP acid secretion inhibitory rate. Here is the method:
CAP: Acid Secretion Inhibition Test In Vitro
The acid secretion inhibitory activity in a cell level is studied. It can also be used for studying the mechanism of the effect. […]
ii-a) Preparation of Isolated Gastric Fundus Gland Suspension
First, an isolated gastric fundic gland sample was prepared. Namely, a male Japanese White rabbit (2.5 to 3 kg) was anesthetized to death with Nembutal™ and then the abdomen was incised. Immediately thereafter, the stomach was removed and, after its pyloric and cardiac antrum were severed, incised along its greater curvature into two sheets. The gastric contents adhering to the mucosal surface was washed out with ice-cooled PBS (-) and then carefully washed therein. The gastric wall was spread on a cork board with its mucosal surface facing up and the feed and mucus thereon were completely removed with sterile gauze. The mucosa was separated therefrom by a spatula and then collected in ice-cooled PBS (-). After being washed twice with PBS (-), the mucosa was minced into 2-3 mm^3 pieces by scissors. These pieces were further washed twice with a nutrient solution. […] Into 70 ml of the nutrient solution containing 1 mg/ml of collagenase, minced mucosal pieces were dispersed and intensely stirred in a conical flask with a stirrer at 37° C. for 40 to 60 minutes. During this period, 100% O2 was sprayed on the nutrient solution surface and the pH was appropriately measured such that it was immediately adjusted to pH 7.4, when the value was therebelow, with a base. The nutrient solution was added to the reaction solution so as to attain the total amount of about 200 ml. After being filtered through a mesh, the suspension was divisionally introduced into 50 ml centrifuge tubes and left for 15 minutes such that gastric fundic gland was deposited. The supernatant was repeatedly removed by an aspirator, dispersed in the nutrient solution, and then left such that the gastric fundic gland was washed three times. At this time, without using a pipette, the suspension was alternately introduced into two centrifuge tubes so as to effect dispersion. The number of cells was counted under microscope and adjusted to 1.6×10^6 cells/ml. […]
ii-b) [^14 C]-aminopyrine Uptake Test
Then, [^14 C]-aminopyrine uptake test was performed. After an Eppendorf tube was weighed, 10 μl (final concentration: 10^-5 M) of histamine dissolved in the above-mentioned nutrient solution, 10 μl (final concentration: 10^-5 M) of the test compound dissolved in DMSO, and 10 μl (final concentration: 0.05 μCi/ml) of [^14 C]-aminopyrine diluted with the nutrient solution were introduced therein and then 970 μl of the isolated gastric fundic gland suspension prepared above was added thereto. […] After being centrifuged for 30 minutes, 200 μl of its supernatant was collected into a mini-vial, while the rest was removed by an aspirator. The gland pellet was completely dried as the tube with its lid being opened was kept for one night in a drying oven at 80° C. and then the lid was closed and the weight was determined at room temperature. Then 100 μl of 1N KOH was added thereto and the tube with its lid being closed was treated at 60° C. for 1 to 2 hours so as to dissolve the pellet. Then, the contents thereof were transferred to a mini-vial. Into the mini-vial containing the supernatant or gland pellet, 4 ml of Atomlite™ was added and then the radioactivity was measured by a liquid scintillation counter. Here, after the radioactivity of the gland pellet was corrected by using a sample in which 20 mM of NaSCN was added so as to cancel the hydrogen ion concentration gradient, the integration ratio of aminopyrine specifically trapped by the gland pellet was calculated. This experiment was performed in duplicate. […]
ii-c) Calculation of the Accumulation Rate of Aminopyrine
Here, its principle will be briefly explained. In the isolated gastric fundic gland, acid is accumulated in a space between its secretory tubule and intraglandular cavity.

Data set [3] can be described thus: MTT: Cell Damaging and Protecting Effect Test. It counts as cell-based, rabbit (male Japanese White). The conditions noted are these: rabbit, gastric corpus mucosa cells, final concentration 10^-4 M, smaller value is better, read-out: MTT cell damaging rate.
Text: as §1, §2, §3, §4, §5, §6, §7

A further data set deals with Helicobacter pyroli. The data set is described as follows: AHP: Antibacterial Activity Test Against Helicobacter pyroli (agar dilution). It counts as cell-based, HP NCTC 11637. The conditions noted are these: for AHP antibacterial activity, colony number relative to control plate: MIC 100 μg/ml or more, plate with 250 mM solution of the sample compound; for MIC: Helicobacter, NCTC11637, 168 h, HP NCTC 11637, agar dilution, 7 days, read-out: AHP minimum inhibitory concentration (MIC). As to the method: AHP: Antibacterial Activity Test Against Helicobacter pyroli i) Meaning The minimum inhibitory concentration (MIC) against Helicobacter pyroli (microaerophilic gram-negative bacterium which is supposed to deeply involve in pathogenesis, relapse, and recrudescence of ulcer, referred to as "HP" in the following) is measured so as to find out compounds which have antimicrobial activity against Helicobacter pyroli. ii) Method MICs were determined by the agar dilution method. The stock culture (-80° C.) of HP NCTC 11637 was thawed and cultured on tripticase soy agar supplemented with 5% sheep blood at 37° C. in an atmosphere of 5% O2, 10% CO2, and 85% N2. Grown colonies were transferred to the same plate and precultured for 3 days under the same condition. […] 10 μl of the bacterial suspension for inoculation (about 10^3 cfu) was inoculated on this plate and cultured for 7 days under the same condition as that of preculture. […] As the result of the comparison of these plates, when the number of the colony on the plate containing the sample compound was less than 90% with respect to that on the control plate, it was represented by "+". Contrary to this, when there was 90% or more, it was represented by "-".

Another data set relates to stress ulcer. Nature of the data set: WIS: Restraint and Water Immersion Stress-Induced Ulcer Inhibition Test. The conditions noted are these: 100 mg/kg oral, rats, 7 hours restraint and water immersion (21° C.). It counts as in vivo, rat (male Crj:SD or Slc:SD). As to the method:
WIS: Restraint and Water Immersion Stress-Induced Ulcer Inhibition Test
The degree of inhibition of the stress ulcer formation is tested.
Male Crj:SD or Slc:SD rats (6 to 7-week-old) were fasted overnight, but allowed free access to water. Each group has 5 to 8 of these rats. […] To a control group, the vehicle was administered. 10 minutes later, the rats were placed in a stress cage and immersed to the level of xipfoid process in a water bath (21° C.) for 7 hours. At the end of the stress, the rats were sacrificed by inhalation of ether or carbon dioxide. Then, the stomach of each was removed, inflated by injecting 10 ml of 5% formalin neutral buffer solution, and immersed in 1% formalin neutral buffer solution for 30 minutes or more to be fixed. The stomach was incised along the greater curvature and then the length of each erosion in the glandular portion was determined under dissecting microscope. The sum of the length of erosions per stomach was defined as ulcer index (UI).
The effect obtained when 100 mg/kg of the sample compound had been administered was expressed as ulcer formation inhibitory rate (%) as follows:
ulcer formation inhibitory rate (%)=(1-(UI in sample group/UI in control group))×100

As to `CC(C)=CCC/C(C)=C/COc1ccc(C(=O)N2CCN(CCNC(=O)c3ccc4c(c3)OCO4)CC2)cc1CC(C)C` [Example 2, 1-(4-geranyloxy-3-isobutyl)benzoyl-4-[2-(piperonyloylamino)ethyl]piperazin], the “MTT cell damaging rate” value in data set [1] was 22%. Further, in data set [2], the “CAP acid secretion inhibitory rate” value came out at 99.4%.
On to `CC(C)=CCC/C(C)=C/COc1ccc(C(=O)N2CCN(CCOC(=O)c3ccncc3)CC2)cc1` [Example 3, 1-(4-geranyloxy)benzoyl-4-(2-isonicotinoyloxyethyl)piperazine], for which the cytotoxicity at 4 h, 100 µM in data set [3] is -24%. Further, the inhibition at 10 µM in data set [2] came to 101%.
In the case of `CC(C)=CCC/C(C)=C/COc1ccc(C(=O)N2CCN(Cc3ccc4c(c3)OCO4)CC2)cc1` [Example 4, 1-(4-geranyloxy)benzoyl-4-piperonylpiperazine], the cytotoxicity at 4 h, 100 µM in data set [3] is -29%. Besides, the “AHP antibacterial activity, colony number relative to control plate” value in the data set with Helicobacter pyroli is given as “+ (the number of the colony on the plate containing the sample compound was less than 90% with respect to that on the control plate)”. Moreover, the “WIS ulcer formation inhibitory rate” value in the data set with stress ulcer was found to be 43%.
In the case of `COc1cc(C(=O)N2CCN(Cc3ccccc3)CC2)cc(OC)c1OC/C=C(\C)CCC=C(C)C` [Example 5, 1-benzyl-4-(3,5-dimethoxy-4-geranyloxy)benzoylpiperazine], in data set [3], the cytotoxicity at 4 h, 100 µM is -50%. For the same molecule, in the data set with Helicobacter pyroli, the “AHP antibacterial activity, colony number relative to control plate” value is “+ (the number of the colony on the plate containing the sample compound was less than 90% with respect to that on the control plate)”. For the same molecule, the inhibition at 10 µM in data set [2] came out at 99.2%.
For the molecule `CC(C)=CCOc1cc(C(=O)N2CCN(Cc3ccccc3)CC2)cc(OCC=C(C)C)c1OCC=C(C)C` [Example 6, 1-benzyl-4-(3,4,5-triprenyloxy)benzoylpiperazine], the cytotoxicity at 4 h, 100 µM in data set [3] is -16%. Also, the inhibition at 10 µM in data set [2] worked out at 99.5%.
For `COc1cc(C(=O)N2CCN(Cc3ccccc3)CC2)cc(OC/C=C(\C)CCC=C(C)C)c1OC` [Example 7, 1-benzyl-4-(3,4-dimethoxy-5-geranyloxy)benzoylpiperazine] the same measures were -44% and 99.6%.
Take `CC(C)Cc1cc(C(=O)N2CCN(C(=O)NC(C)C)CC2)ccc1OCc1ccc(F)cc1` [Example 8, 1-[4-(4-fluorobenzyloxy)-3-isobutyl]benzoyl-4-(N-isopropylcarbamoyl)piperazine]: the cytotoxicity at 4 h, 100 µM in data set [3] is -93%. For the same molecule, the MIC with Helicobacter pyroli is below 3.13 µg/mL. Also, the inhibition at 10 µM in data set [2] worked out at 36.9%.
With `CC(C)Cc1cc(C(=O)N2CCN(Cc3ccccc3)CC2)ccc1OCc1ccccc1` [Example 9, 1-(4-benzyloxy-3-isobutyl)benzoyl-4-benzylpiperazine], the cytotoxicity at 4 h, 100 µM in data set [3] is -32%. For the same molecule, the “AHP antibacterial activity, colony number relative to control plate” value with Helicobacter pyroli is on record as “+ (the number of the colony on the plate containing the sample compound was less than 90% with respect to that on the control plate)”. Besides, in data set [2], the inhibition at 10 µM was 94.6%.
Consider `CC(C)Cc1cccc(C(=O)N2CCN(Cc3ccc4c(c3)OCO4)CC2)c1O` [Example 11], for which, in data set [3], the cytotoxicity at 4 h, 100 µM worked out at 5%. Further, the MIC in the data set with Helicobacter pyroli was below 3.13 µg/mL. Moreover, the inhibition at 10 µM in data set [2] was 93.1%.
Consider `CC(C)Cc1ccc(C(=O)N2CCN(C(c3ccccc3)c3ccccc3)CC2)cc1O` [Example 12, 1-diphenylmethyl-4-(3-hydroxy-4-isobutyl)benzoylpiperazine], for which the cytotoxicity at 4 h, 100 µM in data set [3] was -12%. Besides, the “AHP antibacterial activity, colony number relative to control plate” value with Helicobacter pyroli is on record as “+ (the number of the colony on the plate containing the sample compound was less than 90% with respect to that on the control plate)”. In data set [2], the inhibition at 10 µM was found to be 41.9%.
